Experimental findings from ChEMBL document CHEMBL1201862, “PubChem BioAssay data set” (2004) are described below.

Molecules are shown by their SMILES.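 Assay format: 96-well plates, 48-hour exposure. At the GI50, growth is halved.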 Calls of active or inactive are those of the source. Rule as the data show it: active = GI50 up to about 1.1 µM and inactive = higher.

Some test systems named below: MDA-MB-435; UACC-257; MOLT-4; SN12C; OVCAR-5; HCT-116; SF-268; SF-539; KM12; HT-29; EKVX; HL-60; MDA-MB-231; UACC-62; SK-MEL-28; SK-OV-3; OVCAR-3; COLO 205; RPMI-8226; NCI-H522.
Holding throughout (assay): NCI tumour cell line growth inhibition, 48 h

As for `O=[N+]([O-])c1ccc(/C=C/c2cc(-c3ccccc3)nc3ccc4ccccc4c23)cc1`, the GI50 with MDA-MB-435, in the test on UACC-257, in the test with MOLT-4, with SN12C, in the test on OVCAR-5 and in the test on HCT-116 was > 100 µM (inactive) each time. The GI50 with SF-268, with SF-539, with KM12, with HT-29, in the test on EKVX and in the test with HL-60 was > 100 µM (inactive) each time. Further, the GI50 in the test with MDA-MB-231, with UACC-62, in the test on SK-MEL-28, in the test on SK-OV-3, with OVCAR-3 and with COLO 205 was > 100 µM (inactive) throughout. The GI50 in the test on RPMI-8226 was > 100 µM (inactive).

`COC(=O)[C@@H]1C=C[C@@H](C#N)n2c(=O)n(-c3ccccc3)c(=O)n21`: the GI50 was 42 µM (inactive) with MDA-MB-435; 39.4 µM (inactive) in the test on UACC-257; 34.7 µM (inactive) with MOLT-4; 26.2 µM (inactive) with SN12C; 29.4 µM (inactive) in the test with OVCAR-5; 24.5 µM (inactive) with HCT-116. Moreover, the GI50 in the test with NCI-H522 is 14.8 µM (inactive); in the test with SF-268 it was 27.9 µM (inactive); with SF-539 it was 20.8 µM (inactive); in the test on KM12 it was 28.8 µM (inactive); in the test with HT-29, 31.1 µM (inactive); with EKVX, 35.5 µM (inactive). Further, the GI50 in the test on MDA-MB-231 was 19.7 µM (inactive); with UACC-62, 36.6 µM (inactive); with SK-MEL-28 it was 17 µM (inactive); in the test with SK-OV-3 it was 47.5 µM (inactive); in the test with OVCAR-3, 13.9 µM (inactive); with COLO 205 it was 40.3 µM (inactive). Besides, the GI50 with RPMI-8226 is 31.8 µM (inactive).

Turning to `C=C1C(=O)OC2/C=C(\CO)C3OC3C3OC3(C)CC(OC(=O)/C(=C/C)CO)C12` (configuration not stated), the GI50 with MDA-MB-435 was 53.8 µM (inactive); in the test with UACC-257, > 100 µM (inactive); with MOLT-4, 26.4 µM (inactive); in the test on SN12C, > 100 µM (inactive); in the test with OVCAR-5 it was 50.7 µM (inactive); with HCT-116 it was 35.8 µM (inactive). For the same compound, the GI50 was 15.8 µM (inactive) with NCI-H522; 37.2 µM (inactive) in the test on SF-268; 64 µM (inactive) with SF-539; > 100 µM (inactive) with KM12; 54.7 µM (inactive) in the test with HT-29; 44 µM (inactive) in the test on EKVX. For the same compound, the GI50 was > 100 µM (inactive) in the test on MDA-MB-231; 57.3 µM (inactive) in the test on UACC-62; 42.1 µM (inactive) in the test on SK-MEL-28; > 100 µM (inactive) in the test on SK-OV-3; > 100 µM (inactive) in the test on OVCAR-3; 34.4 µM (inactive) in the test with COLO 205. The GI50 with RPMI-8226 is 17 µM (inactive).

Regarding `C#CCn1c(=O)c(C)cn(/C(=C/C(=O)OCC)C(=O)OCC)c1=O`, the GI50 with MDA-MB-435 is 6.35 µM (inactive); with UACC-257 it was 14.4 µM (inactive); in the test with MOLT-4, 3.43 µM (inactive); in the test with SN12C, 8.57 µM (inactive); in the test on OVCAR-5 it was 3.64 µM (inactive); in the test on HCT-116 it was 4.67 µM (inactive). Besides, the GI50 is 12.4 µM (inactive) in the test on SF-268; 1.64 µM (inactive) in the test with SF-539; 17.4 µM (inactive) with KM12; 2.23 µM (inactive) with HT-29; 5.87 µM (inactive) in the test with EKVX; 3.61 µM (inactive) in the test on HL-60. In addition, the GI50 in the test with MDA-MB-231 was 15.3 µM (inactive); in the test on UACC-62 it was 12.2 µM (inactive); in the test with SK-MEL-28, 4.9 µM (inactive); in the test with SK-OV-3, 21.9 µM (inactive); in the test with OVCAR-3 it was 7.16 µM (inactive); with COLO 205 it was 2.38 µM (inactive). For the same compound, the GI50 in the test on RPMI-8226 is 3.98 µM (inactive).

For `Cn1c(=S)[nH]c(N)c(Cc2ccccc2)c1=O`, the GI50 was > 100 µM (inactive) in the test on MDA-MB-435; > 100 µM (inactive) in the test with UACC-257; 41.8 µM (inactive) in the test on MOLT-4; > 100 µM (inactive) with SN12C; > 100 µM (inactive) in the test with OVCAR-5; > 100 µM (inactive) in the test on HCT-116. For the same compound, the GI50 was > 100 µM (inactive) with SF-268; > 100 µM (inactive) with SF-539; 66.1 µM (inactive) with KM12; 77.8 µM (inactive) with HT-29; 92.5 µM (inactive) in the test on EKVX; > 100 µM (inactive) in the test on HL-60. The GI50 was > 100 µM (inactive) in the test on MDA-MB-231; 40.2 µM (inactive) in the test with UACC-62; > 100 µM (inactive) in the test with SK-MEL-28; > 100 µM (inactive) in the test with SK-OV-3; > 100 µM (inactive) with OVCAR-3; > 100 µM (inactive) with COLO 205. Besides, in the test on RPMI-8226, the GI50 was > 100 µM (inactive).

On to `CC(=O)OCC1OC(O/C=C(\CN=[N+]=[N-])C(C)=O)C(OC(C)=O)C(OC(C)=O)C1OC(C)=O` (configuration not stated), for which the GI50 in the test with MDA-MB-435 is 4.57 µM (inactive); in the test with UACC-257 it was 3.56 µM (inactive); in the test on MOLT-4, 2.53 µM (inactive); in the test with SN12C it was 7.96 µM (inactive); in the test with OVCAR-5, 16.5 µM (inactive); in the test on HCT-116, 3.51 µM (inactive). Also, the GI50 in the test on NCI-H522 is 1.79 µM (inactive); in the test with SF-268, 21.6 µM (inactive); with KM12, 18.7 µM (inactive); in the test with HT-29 it was 11.4 µM (inactive); in the test with EKVX, 14.7 µM (inactive); in the test with HL-60, 2.03 µM (inactive). Further, the GI50 is 12.7 µM (inactive) with MDA-MB-231; 11.6 µM (inactive) with UACC-62; 18.9 µM (inactive) with SK-MEL-28; 45 µM (inactive) with SK-OV-3; 8.59 µM (inactive) with OVCAR-3; 1.74 µM (inactive) with COLO 205. In addition, the GI50 in the test with RPMI-8226 is 1.74 µM (inactive).

As to `N=C(N)NS(=O)(=O)c1ccc(Nc2c3ccccc3nc3c(C(=O)NC(CO)(CO)CO)cccc23)cc1`, the GI50 in the test on MDA-MB-435 was 24.9 µM (inactive); with UACC-257 it was > 100 µM (inactive); in the test on MOLT-4, 2.79 µM (inactive); with SN12C it was 26.5 µM (inactive); in the test on OVCAR-5 it was 11.9 µM (inactive); with NCI-H522, 11.7 µM (inactive). The GI50 with SF-268 was 19.5 µM (inactive); in the test with KM12, 14.9 µM (inactive); with HT-29 it was 21.3 µM (inactive); in the test with EKVX, > 100 µM (inactive); in the test with HL-60, 18.9 µM (inactive); in the test on MDA-MB-231 it was 21.8 µM (inactive). Also, the GI50 with UACC-62 is 19.5 µM (inactive); in the test on SK-MEL-28, 30.5 µM (inactive); in the test on SK-OV-3, 22 µM (inactive); in the test with OVCAR-3, 27.5 µM (inactive); in the test with COLO 205, 12.6 µM (inactive); with RPMI-8226 it was 20.1 µM (inactive).

As for `CN(C)c1nncc2[nH]cnc12`, the GI50 with MDA-MB-435, in the test on UACC-257, in the test on MOLT-4, with SN12C, with OVCAR-5 and in the test on HCT-116 was > 100 µM (inactive) each time. Further, the GI50 in the test on SF-268 is > 100 µM (inactive); in the test on SF-539 it was > 100 µM (inactive); in the test on KM12, 74.8 µM (inactive); in the test on HT-29, > 100 µM (inactive); with EKVX, > 100 µM (inactive); with HL-60 it was > 100 µM (inactive). For the same compound, the GI50 with MDA-MB-231, in the test on UACC-62, in the test on SK-MEL-28, in the test on OVCAR-3, in the test on COLO 205 and in the test with RPMI-8226 was > 100 µM (inactive) throughout.

Turning to `CCOc1c(OC)cc(C2c3cc4c(c(OCC)c3CC3COC(=O)C32)OCO4)cc1OC` (configuration not stated), the GI50 in the test on MDA-MB-435 was 0.272 µM (active); in the test on UACC-257 it was 0.912 µM (active); in the test on MOLT-4, 2.65 µM (inactive); in the test on SN12C, 2.21 µM (inactive); in the test on OVCAR-5, 3.24 µM (inactive); in the test on HCT-116, 2.16 µM (inactive). In addition, the GI50 in the test on NCI-H522 was 2.25 µM (inactive); with SF-268 it was 7.21 µM (inactive); with SF-539, 1.75 µM (inactive); in the test on KM12 it was 0.962 µM (active); with HT-29, 2.47 µM (inactive); with EKVX, 12.7 µM (inactive). Moreover, the GI50 is 2.17 µM (inactive) in the test on MDA-MB-231; 0.365 µM (active) in the test on UACC-62; 16.6 µM (inactive) in the test with SK-MEL-28; 4.03 µM (inactive) in the test with SK-OV-3; 1.12 µM (active) in the test on OVCAR-3; 2.22 µM (inactive) in the test with COLO 205. Moreover, the GI50 in the test on RPMI-8226 was 3.75 µM (inactive).

Take `COc1ccc(N2C(=O)CC(c3c[nH]c4ccccc34)C2=O)cc1` (configuration not stated): the GI50 with MDA-MB-435, with UACC-257, in the test on MOLT-4, with SN12C, with OVCAR-5 and with HCT-116 was > 100 µM (inactive) throughout. The GI50 in the test on SF-268, in the test with SF-539, with HT-29, in the test with EKVX, with HL-60 and in the test on MDA-MB-231 was > 100 µM (inactive) in each case. Besides, the GI50 in the test on UACC-62, with SK-MEL-28, with SK-OV-3, in the test with OVCAR-3, in the test with COLO 205 and in the test on RPMI-8226 was > 100 µM (inactive) in each case.
